Experiments:
h20S = settings: cited from earlier work
wt y20S proteasome = system: T1, wt y20S proteasome; test: 20S proteasome chymotryptic-like activity assay (Suc-LLVY-AMC), steady-state kinetics vs Tris-T4 concentration; assay type: biochemical, yeast
T1 construct: Yeast CP 20S wild-type and the mutant form, α3ΔN, were purified as previously reported; made in house; host or cells: yeast
Description: (§1) Then, we have extended the investigation on the functional modulation of the chymotryptic-like activity by Tris-T4 porphyrin also to wt y20S proteasome and to its mutant α3ΔN, which is characterized by a significant enhancement of the enzymatic activity, ascribed to disruption of the gate closing mechanism.
(§2) In addition, for the sake of clarity, in Scheme 1 some of these parameters are reported as interaction ratios, namely α = KAU/KAL, β = KBU/KBL, γ = KBU/KAU, and δ = KBL/KAL. Finally, σA and σB refer to the eventual effect of Tris-T4 binding on the catalytic rate-limiting step kcat of either state A and/or state B (see Scheme 1). […] (1) kobscat=kcatA⋅(1+KAL⋅[Tris_T4])^n+LL⋅kcatB⋅(1+KBL⋅[Tris_T4])^n/(1+KAL⋅[Tris_T4])^n+LL⋅(1+KBL⋅[Tris_T4])^n (2) Kobsm=K0m⋅(1+KAU⋅[Tris_T4])^n+LU⋅(1+KBI⋅[Tris_T4])^m⋅(1+KBU⋅[Tris_T4])^n/(1+KAL⋅[Tris_T4])^n+LL⋅(1+KBL⋅[Tris_T4])^n (3) kobscat/Kobsm=kcatA/KmA⋅(1+KAU⋅[Tris_T4])^n+LU⋅kcatB/KmB⋅(1+KBI⋅[Tris_T4])^m⋅(1+KBU⋅[Tris_T4])^n/(1+KAU⋅[Tris_T4])^n+LU⋅(1+KBI⋅[Tris_T4])^m⋅(1+KBU⋅[Tris_T4])^n
(§3) 20S proteasome activity assays were performed in vitro in the assay buffer (i.e., 50 mM TrisHCl, pH 8.0) by mixing 20S proteasome (2 nM) with increasing concentrations (0.1–10 µM) of Tris-T4 incubating for 30 min at 37 °C. Then, varying concentrations (between 5 µM and 100 µM) of fluorogenic peptide were added in a 384 multiwell black plate. A minimum of three replicates were performed for each data point. […] Data relative to CP activities at different substrate concentrations have been analyzed by a double reciprocal Lineweaver–Burk plot, according to the following equation:(4) [E0]/v=Km/±kcatx 1/[S]+1/kcat where (E0) is the enzyme concentration, ν is the observed velocity (expressed as moles of substrate cleaved per time interval unit), (S) is the substrate concentration, Km is the Michaelis–Menten equilibrium constant, referring to the affinity for substrate, and kcat is the velocity of the rate-limiting step. All curve fitting and statistical analysis were carried out using the non-linear fitting tool (NLFit) and MatLab (The Math works Inc., Natick, MA, USA). The parametric data fitting was based on nonlinear regression and the method of least squares. Model discrimination and choice was based on the goodness of fit. The goodness of fit was evaluated by visual examination of the fitted curves, 95% confidence bounds for the fitted coefficients and statistical analysis for determining the square of the multiple correlation coefficient (R^2).The Gibbs free energy difference (ΔG^0 = −RT lnK) was calculated using the values of the equilibrium constants reported in Table 1 and corresponds to −ΔG^0 of the considered conformational transition equilibrium as depicted in Scheme 1.

human 20S proteasome = system: T2, human 20S proteasome; test: as above; assay type: biochemical
T2 construct: purchased Boston Biochem
Description: In order to better characterize the effect of Tris-T4 on the functional properties of the 20S proteasome, we have carried out an investigation on the steady-state chymotryptic-like activity of h20S as a function of Tris-T4 concentration, employing different substrate concentrations.
as §2, §3

[1] = system: purified rabbit 20S proteasome; parameters: method as in PMID 22642538; settings: 100 µM fluorogenic substrate; apparent inhibition; read-out: IC50, chymotryptic-like activity; cited from earlier work
h20S proteasome = system: T3, h20S proteasome; test: STD and WaterLOGSY NMR interaction study; assay type: binding, human; settings: Tris-T4 175 μM, 20S 860 nM; 50 mM Hepes, 100 mM NaCl, 1mM DTT
T3 construct: purchased Boston Biochem
Description: For NMR interaction studies, Saturation Transfer Difference (STD) and WaterLogsy (WL) experiments were employed to derive the ligand binding epitope.
As a starting point, the Tris-T4 structure has been analyzed by ^1H NMR spectroscopy in the buffer (50 mM Hepes, 100 mM NaCl and 1mM DTT). The ^1H chemical shift assignments of Tris-T4 are reported in Supplementary Figure S1. Both STD- and WL-NMR spectra of Tris-T4 were acquired in a 200-fold excess over the h20S proteasome.
Then, to identify the ligand moiety more closely interacting with the protein, we evaluated and compared the saturation effects of the individual Tris-T4 proton resonances (ISTD = I0 − Isat). The signal showing the largest ISTD/I0 value, the para phenyl proton, was normalized to 100% (Figure 7). The relative degree of saturation of the individual protons, normalized to that of the para phenyl proton, was then used to compare the STD effect.

[2] = system: T4, yeast α3ΔN mutant of 20S proteasome; test: 20S proteasome chymotryptic-like activity assay (Suc-LLVY-AMC), steady-state kinetics vs Tris-T4 concentration; assay type: biochemical
T4 construct: Yeast CP 20S wild-type and the mutant form, α3ΔN, were purified as previously reported; made in house; host or cells: yeast
T4 sequence (P23639 whole entry, stated change not applied): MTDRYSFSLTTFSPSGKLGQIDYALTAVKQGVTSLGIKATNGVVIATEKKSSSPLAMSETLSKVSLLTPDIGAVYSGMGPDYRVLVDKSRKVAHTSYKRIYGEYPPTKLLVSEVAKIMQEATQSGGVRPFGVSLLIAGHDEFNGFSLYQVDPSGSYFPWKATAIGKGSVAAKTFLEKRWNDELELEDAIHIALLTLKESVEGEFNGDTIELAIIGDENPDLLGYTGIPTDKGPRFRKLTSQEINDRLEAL
T4 sequence (P32379 whole entry, stated change not applied, further chain): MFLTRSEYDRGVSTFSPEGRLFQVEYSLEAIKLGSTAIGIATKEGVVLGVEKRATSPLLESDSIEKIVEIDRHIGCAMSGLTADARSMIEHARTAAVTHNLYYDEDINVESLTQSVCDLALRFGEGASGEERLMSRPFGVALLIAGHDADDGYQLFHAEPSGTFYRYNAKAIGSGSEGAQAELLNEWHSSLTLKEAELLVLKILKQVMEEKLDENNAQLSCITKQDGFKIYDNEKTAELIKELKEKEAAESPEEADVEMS
T4 sequence (P40303 whole entry, stated change not applied, further chain): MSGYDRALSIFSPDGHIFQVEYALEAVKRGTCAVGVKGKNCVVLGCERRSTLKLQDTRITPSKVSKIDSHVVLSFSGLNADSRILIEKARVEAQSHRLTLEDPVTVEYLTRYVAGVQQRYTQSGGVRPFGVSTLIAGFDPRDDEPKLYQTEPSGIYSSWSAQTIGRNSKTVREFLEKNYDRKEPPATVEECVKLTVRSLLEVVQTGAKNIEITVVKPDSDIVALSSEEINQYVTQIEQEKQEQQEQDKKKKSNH
T4 sequence (P40302 whole entry, stated change not applied, further chain): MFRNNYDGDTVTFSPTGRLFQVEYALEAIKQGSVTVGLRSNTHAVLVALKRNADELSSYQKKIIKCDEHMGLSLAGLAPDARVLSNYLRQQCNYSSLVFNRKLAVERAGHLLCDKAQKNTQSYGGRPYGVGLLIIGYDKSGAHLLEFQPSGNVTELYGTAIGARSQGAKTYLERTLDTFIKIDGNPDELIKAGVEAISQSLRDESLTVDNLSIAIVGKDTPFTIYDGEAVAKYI
T4 sequence (P21243 whole entry, stated change not applied, further chain): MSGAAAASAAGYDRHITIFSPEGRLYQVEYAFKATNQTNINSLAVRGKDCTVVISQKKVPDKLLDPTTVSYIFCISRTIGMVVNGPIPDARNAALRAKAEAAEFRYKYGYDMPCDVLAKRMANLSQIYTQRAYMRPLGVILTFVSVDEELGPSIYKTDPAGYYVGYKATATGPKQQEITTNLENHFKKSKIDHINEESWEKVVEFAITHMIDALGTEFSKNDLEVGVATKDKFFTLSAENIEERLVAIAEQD
Description: as §1, §2, §3

[3] = Michaelis-Menten constant in state A
[4] = Michaelis-Menten constant in state B (stabilized by Tris-T4)
[5] = state B, substrate-bound ES complex
[6] = state A, substrate-bound ES complex

For `C[n+]1ccc(-c2c3nc(c(-c4cc[n+](C)cc4)c4ccc([nH]4)c(-c4cc[n+](C)cc4)c4nc(c(-c5cc[n+](C)cc5)c5ccc2[nH]5)C=C4)C=C3)cc1` [H2T4, meso-tetrakis (4-N-methylpyridyl)-porphyrin], the “mode of action on h20S” value (h20S) is listed as “competitive inhibitor”.
For `C[n+]1ccc(-c2c3nc(c(-c4cc[n+](C)cc4)c4ccc([nH]4)c(-c4cc[n+](C)cc4)c4nc(c(-c5ccccc5)c5ccc2[nH]5)C=C4)C=C3)cc1` [Tris-T4, 5-(phenyl)-10,15,20-(tri N-methyl-4-pyridyl) porphyrin], the “m, number of competitive inhibitory sites” value (wt y20S proteasome; Eq 1-3) was 1, the “n, number of concerted allosteric binding sites for Tris-T4” value (shortened to “n, number”) (wt y20S proteasome; Eq 1-3) was 2 and the KmA (wt y20S proteasome; [3]) was 1.17(± 0.22) × 10^−4 M. For the same compound, the KmB (wt y20S proteasome; [4]) was 9.04(± 1.82) × 10^−6 M, the “effect on chymotryptic-like activity at higher Tris-T4 concentrations” value (wt y20S proteasome; above 1 μM Tris-T4, overwhelms the activation) was “competitive inhibitory effect” and the “LU, equilibrium constant between A and B” value (wt y20S proteasome; absence of the substrate) was 6.0(± 1.0) × 10^−4 (2). For the same compound, the “Tris-T4 concentration at which activation is essentially completed” value (wt y20S proteasome; chymotryptic-like activity) was 1 µM, the kcatA (wt y20S proteasome; rate-limiting step in state A, fit of Eq 1-3) was 0.95 ± 0.15 s⁻¹ and the kcatB (wt y20S proteasome; rate-limiting step in state B (stabilized by Tris-T4)) was 0.17 ± 0.03 s⁻¹. The “KAU, affinity constant for Tris-T4” value (wt y20S proteasome; state A, absence of substrate) was 3.0(± 0.5) × 10^5 M^−1, the “KBI, affinity constant for Tris-T4 to the inhibitory competitive site” value (wt y20S proteasome; state B) was 2.5(± 0.4) × 10^6 M^−1 and the “KBU, affinity constant for Tris-T4” value (wt y20S proteasome; state B, absence of substrate) was 9.0(± 1.8) × 10^7 M^−1. The “KBL, affinity constant for Tris-T4” value (wt y20S proteasome; [5]) was 1.3(± 0.3) × 10^8 M^−1, the “LL, equilibrium constant between A and B” value (wt y20S proteasome; substrate-bound ES complex) was 7.8(± 1.5) × 10^−3 (2) and the “effect on chymotryptic-like activity” value (human 20S proteasome; (Substrate) < 25 µM, Tris-T4 0-10 μM) was “activator”. For the same compound, the “m, number of competitive inhibitory sites” value (human 20S proteasome; Eq 1-3) was 0, the KmA (human 20S proteasome; [3]) was 1.95(± 0.37) × 10^−3 M and the KmB (human 20S proteasome; [4]) was 1.5(± 0.3) × 10^−4 M. For the same compound, the “LU, equilibrium constant between A and B” value (human 20S proteasome; absence of the substrate, floating parameter of the two-state model) was 3.0(± 0.5) × 10^−6 (3), the “Tris-T4 concentration at which activation is essentially completed” value (human 20S proteasome; chymotryptic-like activity) was 3 µM and the “n, number” value (human 20S proteasome; minimum value, Eq 1-3) was 3. For the same compound, the kcatA (human 20S proteasome; rate-limiting step in state A, fit of Eq 1-3, substrate ≤ 25 μM, pH 8.0, 37 °C) was 11.5 ± 1.3 s⁻¹, the kcatB (human 20S proteasome; rate-limiting step in state B (stabilized by Tris-T4), fit of Eq 1-3) was 0.32 ± 0.05 s⁻¹ and the “KAU, affinity constant for Tris-T4” value (human 20S proteasome; state A, absence of substrate) was 2.0(± 0.3) × 10^4 M^−1. For the same compound, the “KAL, affinity constant for Tris-T4” value (human 20S proteasome; [6]) was 1.2(± 0.3) × 10^4 M^−1, the “KBU, affinity constant for Tris-T4” value (human 20S proteasome; state B, absence of substrate) was 8.2(± 1.2) × 10^7 M^−1 and the “KBL, affinity constant for Tris-T4” value (human 20S proteasome; [5]) was 1.35(± 0.28) × 10^8 M^−1. The “LL, equilibrium constant between A and B” value (human 20S proteasome; substrate-bound ES complex) was 3.9(± 0.6) × 10^−5 (3), the “free energy contribution of each Tris-T4 binding step (RTln(KBL/KAL))” value (human 20S proteasome; substrate-bound state) was 5.71 kcal/mol and the “free energy contribution of each Tris-T4 binding step (RTln(KBU/KAU))” value (human 20S proteasome; substrate-free conformation) was 5.11 kcal/mol. For the same compound, the “free energy for the A → B transition in favor of the B functional state (RTlnLUγ^3)” value (human 20S proteasome; substrate-free porphyrin triple-bound enzyme) was 7.5 kcal/mol, the IC50 [1] was 920 ± 60 nM and the “STD and WL-NMR spectra, interaction” value (h20S proteasome) was “positive signals”. The “m, number of competitive inhibitory sites” value ([2]; Eq 1-3) was 1, the “n, number” value ([2]; Eq 1-3) was 2 and the KmA [2, 3] was 4.1(± 0.6) × 10^−3 M. The KmB ([2]; Michaelis-Menten constant in state B) was 1.07(± 0.27) × 10^−2 M, the “effect on chymotryptic-like activity” value ([2]; Tris-T4 0-5 μM, no activation) was “only the competitive inhibitory effect is observed” and the “LU, equilibrium constant between A and B” value ([2]; absence of the substrate) was 3.9(± 0.6) × 10^−2. For the same compound, the “KAU, affinity constant for Tris-T4” value ([2]; state A, absence of substrate) was 3.0(± 0.5) × 10^5 M^−1, the “KAL, affinity constant for Tris-T4” value [2, 6] was 1.2(± 0.4) × 10^5 M^−1 and the kcatA ([2]; state A, same kcat imposed for both states) was 49.5 ± 5.6 s⁻¹. The “KBI, affinity constant for Tris-T4 to the inhibitory competitive site” value ([2]; state B) was 2.5(± 0.4) × 10^6 M^−1, the “KBU, affinity constant for Tris-T4” value ([2]; state B, absence of substrate) was 9.0(± 1.8) × 10^7 M^−1 and the “KBL, affinity constant for Tris-T4” value [2, 5] was 1.3(± 0.3) × 10^8 M^−1. The kcatB ([2]; state B, same kcat imposed for both states) was 49.5 ± 5.6 s⁻¹ and the “LL, equilibrium constant between A and B” value ([2]; substrate-bound ES complex) was 1.5(± 1.0) × 10^−2.
For `C[n+]1ccc(-c2ccc(-c3c4nc(c(-c5ccc(-c6cc[n+](C)cc6)cc5)c5ccc([nH]5)c(-c5ccc(-c6cc[n+](C)cc6)cc5)c5nc(c(-c6ccc(-c7cc[n+](C)cc7)cc6)c6ccc3[nH]6)C=C5)C=C4)cc2)cc1` [pTMPyPP4, meso-tetrakis (4-N-methylphenyl-pyridyl)-porphyrin], the “mode of action on h20S” value (h20S) is given as “allosteric inhibitor”.

Reference: paper PMC7582714, “Cooperative Binding of the Cationic Porphyrin Tris-T4 Enhances Catalytic Activity of 20S Proteasome Unveiling a Complex Distribution of Functional States” (International Journal of Molecular Sciences, 2020)
